What all share (assay): Test B flooded paddy test
Common to all, as to assay type: in vivo

The test system of test [1] is sedge, umbrella (small-flower umbrella sedge, Cyperus difformis). As to conditions: Cyperus difformis, 312 h, Flood, scale of 0 to 100, 0 is no effect, 100 is complete control, 13 to 15 d, read-out: Plant response rating, Sedge, Umbrella; for pest or weed control at 250 g/ha: 250 g ai/ha. In outline:
(§1)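 Visual ratings, 0 meaning no effect and 100 complete control, were made relative to untreated controls 13–15 d after treatment in a greenhouse. Treatment was by addition to paddy water 3 cm above the soil, maintained for the test, on 2-leaf-stage plants.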

In test [2] the test system is ducksalad (Heteranthera limosa). To be noted: Heteranthera limosa, 312 h, Flood, scale of 0 to 100, 0 is no effect, 100 is complete control, 13 to 15 d, read-out: Plant response rating, Ducksalad; for pest or weed control at 250 g/ha: 250 g ai/ha. The gist of the method: as §1
For test [3], the system named is barnyardgrass (Echinochloa crus-galli). To be noted: Echinochloa crus-galli, 312 h, Flood, scale of 0 to 100, 0 is no effect, 100 is complete control, 13 to 15 d, read-out: Plant response rating, Barnyardgrass; for pest or weed control at 250 g/ha: 250 g ai/ha. The gist of the method: as §1
For a further test, the system named is rice (Oryza sativa). To be noted: Oryza sativa, 312 h, Flood, scale of 0 to 100, 0 is no effect, 100 is complete control, 13 to 15 d, read-out: Plant response rating, Rice; for plant injury at 250 g/ha: 250 g ai/ha. In outline:
as §1

Regarding `Cc1cc(=O)n(-c2ccc(F)cc2)nc1Cn1ccc(C(F)(F)F)n1` [Compound 3, 2-(4-fluorophenyl)-5-methyl-6-[[3-(trifluoromethyl)-1H-pyrazol-1-yl]methyl]-3(2H)-pyridazinone], the pest or weed control at 250 g/ha in test [1], in test [2] and in test [3] was 0% in each case. Also, in the test on rice (Oryza sativa), the plant injury at 250 g/ha was 0%.
In the case of `Cc1cc(=O)n(-c2ccc(C(F)(F)F)cc2)nc1Oc1ccnc(C(F)(F)F)c1` [Compound 5, 5-methyl-2-[4-(trifluoromethyl)phenyl]-6-[[2-(trifluoromethyl)-4-pyridinyl]oxy]-3(2H)-pyridazinone], the pest or weed control at 125 g/ha in test [1] (125 g ai/ha) was determined as 80%; in test [2] (125 g ai/ha) it was 75%; in test [3] (125 g ai/ha) it was 55%. Besides, in the test with rice (Oryza sativa) (125 g ai/ha), the plant injury at 125 g/ha is 55%.
Consider `CCOc1cc(=O)n(-c2ccc(F)cc2)nc1C(=O)c1ccnc(C(F)(F)F)c1` [Compound 22, 5-ethoxy-2-(4-fluorophenyl)-6-[[2-(trifluoromethyl)-4-pyridinyl]carbonyl]-3(2H)-pyridazinone], for which the pest or weed control at 250 g/ha is 80% in test [1], 70% in test [2] and 10% in test [3]. Besides, in the test on rice (Oryza sativa), the plant injury at 250 g/ha was 10%.

The values above are taken from US10202361B2, “Pyridazinones as herbicides” (E I DU PONT DE NEMOURS AND COMPANY, priority 2014, dated 2019).
